Source: paper PMC7326275 (PLoS Pathogens, 2020)
Marks after values point to notes of the source that are not given here.

How the values were obtained:
[1] = system: B (D197N) virus (B/Singapore/GP702/2015); set-up: species or system ferret; AUC (total area under the viral shedding curve, raw data): unit not given beside the values; settings: in vivo
H1N1pdm09 (H275Y) virus = system: H1N1pdm09 (H275Y) virus; set-up: species or system Cynomolgus macaques (Macaca fascicularis); settings: cynomolgus monkey, in vivo
[2] = system: H1N1 (H275Y) virus (A/Mississippi/3/2001 clone); set-up: species or system ferret; AUC (total area under the viral shedding curve, raw data): unit not given beside the values; settings: in vivo
[3] = system: H1N1pdm09 (H275Y) virus (A/Perth/261/2009); set-up: species or system ferret; AUC (total area under the viral shedding curve, raw data): unit not given beside the values; settings: in vivo
[4] = system: H3N2 (E119V) virus (A/Fukui/45/2004); set-up: species or system ferret; AUC (total area under the viral shedding curve, raw data): unit not given beside the values; settings: in vivo
[5] = system: B (H273Y) virus (B/Perth/265/2015); set-up: species or system ferret; AUC (total area under the viral shedding curve, raw data): unit not given beside the values; settings: in vivo

## CCOC(=O)C1=C[C@@H](OC(CC)CC)[C@H](NC(C)=O)[C@@H](N)C1 [OST, oseltamivir]
[1]
  % Ferrets Infected: 100 (4/4) %
  AUC (total area under the viral shedding curve, raw data): 12.6 ± 2.3
  Activity loss clinical score: 1 (key: ≤20; 21–40; 2: 41–60; 3: >60)
  Duration of Shedding: 4.2 ± 1.0 days
  Nasal inflammation Cell score: 0 (key: <1X10^6; 1 to 2 x10^6; 2.1 to 4 x10^6; 3: >4x10^6)
  Nasal inflammation Protein score: 0 (key: <500; 500–1000; 2: 1001–1500; 3: >1500)
  Peak Viral Titre: 4.5 ± 0.5 Log10 TCID50/ml
  Temperature clinical score: 0 (key: 0: <1; 1.1–1.5; 1.5–2.0; 3: >2.0)
  Total Score (clinical signs): 1
  Weight loss clinical score: 0
  viral titre on the single day with significant difference to placebo: 4.1 ± 0.4 Log10 TCID50/ml
H1N1pdm09 (H275Y) virus
  body weight or temperature, OST- vs placebo-treated animals: no significant differences
  lower viral titre in tracheal lavages of OST dosed macaques on Day 3: not observed
  viral titres in nasal wash and tracheal lavages, OST vs placebo: not significantly different
[2]
  % Ferrets Infected: 100 (4/4) %
  AUC (total area under the viral shedding curve, raw data): 18.2 ± 4.3
  Activity loss clinical score: 3 (key: ≤20; 21–40; 2: 41–60; 3: >60)
  Duration of Shedding: 5.2 ± 1.25 days
  Nasal inflammation Cell score: 1 (key: <1X10^6; 1 to 2 x10^6; 2.1 to 4 x10^6; 3: >4x10^6)
  Nasal inflammation Protein score: 0 (key: <500; 500–1000; 2: 1001–1500; 3: >1500)
  Peak Viral Titre: 4.6± 0.5 Log10 TCID50/ml
  Temperature clinical score: 2 (key: 0: <1; 1.1–1.5; 1.5–2.0; 3: >2.0)
  Total Score (clinical signs): 7
  Weight loss clinical score: 1 (key: 0: Weight increase or no change; 1–3; 2: 3–6; 3: >6)
[3]
  % Ferrets Infected: 100 (4/4) %
  AUC (total area under the viral shedding curve, raw data): 23.4 ± 4.4
  Activity loss clinical score: 3 (key: ≤20; 21–40; 2: 41–60; 3: >60)
  Duration of Shedding: 6.0 ± 1.4 days
  Nasal inflammation Cell score: 3 (key: <1X10^6; 1 to 2 x10^6; 2.1 to 4 x10^6; 3: >4x10^6)
  Nasal inflammation Protein score: 3 (key: <500; 500–1000; 2: 1001–1500; 3: >1500)
  Peak Viral Titre: 5.2 ± 0.6 Log10 TCID50/ml
  Temperature clinical score: 3 (key: 0: <1; 1.1–1.5; 1.5–2.0; 3: >2.0)
  Total Score (clinical signs): 15
  Weight loss clinical score: 3 (key: 0: Weight increase or no change; 1–3; 2: 3–6; 3: >6)
[4]
  % Ferrets Infected: 62 (5/8) %
  AUC (total area under the viral shedding curve, raw data): 6.0 ± 7.7
  Activity loss clinical score: 0 (key: ≤20; 21–40; 2: 41–60; 3: >60)
  Duration of Shedding: 3.8 ± 0.5 days
  Nasal inflammation Cell score: 0 (key: <1X10^6; 1 to 2 x10^6; 2.1 to 4 x10^6; 3: >4x10^6)
  Nasal inflammation Protein score: 0 (key: <500; 500–1000; 2: 1001–1500; 3: >1500)
  Peak Viral Titre: 4.8 ± 0.4 Log10 TCID50/ml
  Temperature clinical score: 0 (key: 0: <1; 1.1–1.5; 1.5–2.0; 3: >2.0)
  Total Score (clinical signs): 0
  Weight loss clinical score: 0
[5]
  % Ferrets Infected: 100 (4/4) %
  AUC (total area under the viral shedding curve, raw data): 13.5 ± 1.0
  Activity loss clinical score: 1 (key: ≤20; 21–40; 2: 41–60; 3: >60)
  Duration of Shedding: 5.2 ± 0.5 days
  Nasal inflammation Cell score: 0 (key: <1X10^6; 1 to 2 x10^6; 2.1 to 4 x10^6; 3: >4x10^6)
  Nasal inflammation Protein score: 0 (key: <500; 500–1000; 2: 1001–1500; 3: >1500)
  Peak Viral Titre: 3.8 ± 0.6 Log10 TCID50/ml
  Temperature clinical score: 0 (key: 0: <1; 1.1–1.5; 1.5–2.0; 3: >2.0)
  Total Score (clinical signs): 1
  Weight loss clinical score: 0
